Structures can show the parent of a compound that is named as a salt. Where two headings read alike, the source gives them in different places.
Columns and labels:
α-glucosidase [1] = system: α-glucosidase; design: method as in earlier work; settings: cited from earlier work; for Inhibitory activity on α-glucosidase (in words): ellagitannin dimers isolated from T. japonica; for IC50: table lines marked with reference 8, means ± SE (n = 3), read-out: Inhibitory Effects on α-Glucosidase Activity IC50
[2] = system: AGE formation in human serum albumin (HSA)/glucose or fructose; assay: Inhibitory effect on AGE formation (HSA with glucose or fructose, fluorescence); type: biochemical; settings: 60 °C, 40 h, means ± SE (n = 3)
Procedure: The antiglycation effects of compounds isolated from TBE and several other related compounds were evaluated based on their AGE inhibitory activities as described previously, with slight modifications. Briefly, the sample solution was added to a reaction mixture containing 83.3 mM phosphate buffer (pH 7.2), 2.0 M glucose, 2.0 M fructose, 8.0 mg/mL human serum albumin (HSA), and distilled water (6:1:1:1:1, v/v). As a control, the vehicle was supplemented instead of the sample solution. For each blank, glucose or fructose was replaced with distilled water, and the total volume was set to 1000 μL. After incubation of the sample mixture at 60 °C for 40 h, the solutions were diluted 8-fold with distilled water, dispensed into a black microplate in 200 µL portions, and their fluorescence intensities were measured at excitation and emission wavelengths of 370 and 465 nm, respectively, using a Power Scan HT (DS Pharma Biomedical Co. Ltd., Osaka, Japan). The inhibitory rate was calculated as; Inhibitory rate (%) = 100 − [(S − SB)/(C − CB)] × 100(2) where S is the relative intensity of the sample solution, C is the relative intensity of the control solution, and SB and CB are the intensities of the glucose or fructose-omitted blank solutions. The experimental data are represented as IC50 (μM) values.

α-glucosidase [3] = assay: α-Glucosidase inhibitory activity (rat intestinal acetone powder, maltose substrate); type: biochemical; settings: for IC50: maltose, pH 7, 37 °C, means ± SE (n = 3), read-out: Inhibitory Effects on α-Glucosidase Activity IC50
Procedure: The α-glucosidase inhibitory activity was tested according to the previously described method by Kirino et al. with a slight modification. Rat intestinal acetone powder was mixed with 0.1 M phosphate buffer (pH 7) and centrifuged at 18,500× g and 4 °C for 20 min. The resulting supernatant was collected and used as a glucosidase solution for enzymatic assay. Each sample solution (160 μL) was mixed with 250 mM maltose solution (20 μL) in 0.2 M phosphate buffer (pH 7) and then incubated at 37 °C for 3 min. After incubation, the enzymatic reaction was started by adding glucosidase solution from the rat intestine (20 μL) and the resulting reaction mixtures were further incubated at 37 °C for 15 min. After 15 min, the reaction mixtures were immediately heated at 100 °C for 5 min to stop the reaction followed by cooling on ice for 5 min. The amount of glucose in the reaction mixtures was determined using the F-Kit glucose (Roche diagnostics, Co., Tokyo, Japan) by measuring the absorbance at 340 nm. A control was carried out with 0.1 M phosphate buffer (pH 7) instead of sample solution. For the blank, the glucosidase solution was replaced with distilled water. The glucosidase inhibitory rates of tested samples were calculated as; Inhibitory rate (%) = 100 − [(Asample − Ablank)/(Acontrol − Ablank)] × 100(1) where Asample, Acontrol, and Ablank is the absorbance of the tested sample, control, and blank, respectively. The experimental data are represented as IC50 (μM) values.

[4] = AGE-derived crosslink-cleaving effect (PPD cleavage to benzoic acid, HPLC); settings: for Crosslink-Cleaving Activities Relative Ratio: tested samples 100 μg/mL, relative to PTB = 100, means ± SE (n = 3); for AGE cross-link cleaving activity (in words): compared with positive control PTB
Procedure: The AGE crosslink-cleaving activity of the same samples was evaluated according to the previously described method by Kato et al. with a slight modification. Briefly, the 1 mg/mL of tested samples prepared with H2O were mixed with 1.13 mM PPD solution in MeOH:50 mM phosphate buffer (pH 7.4) (1:1) and incubated at 37 °C for 4 h. After 4 h, the reaction was stopped with 200 μL of 2 M HCl, then the stopped reaction mixtures were centrifuged at 8200× g for 5 min. The amount of benzoic acid in the supernatant was measured by reversed-phase HPLC. The following conditions were applied: column, InertSustain C18 column (150 mm × 4.6 i.d mm., 5 μm); mobile phase, 50 mM phosphate buffer (pH 2.2):CH3CN (80:20) (solvent A) and 50 mM phosphate buffer (pH 2.2):CH3CN (50:50) (solvent B), the gradient program, 0–20 min (solvent B: 0–25%), 20–25 min (solvent B: 25–100%), 25–36 min (solvent B: 100–25%); column temperature, 40 °C; detection, UV at 230 nm; flow rate, 1.0 mL/min. These cleaving effects were calculated as equivalents to benzoic acid.

[5] = HSA/fructose, read-out: Inhibitory Effects on AGE Formation IC50, Fructose
[6] = HSA/glucose, read-out: Inhibitory Effects on AGE Formation IC50, Glucose

Compound: Cornusiin G [reference compound]
- Inhibitory activity on α-glucosidase (in words) (α-glucosidase [1]): comparable to that of acarbose
- IC50 (α-glucosidase [1]): 6.3 ± 0.1 µM

Compound: O=c1oc2c(O)c(O)cc3c(=O)oc4c(O)c(O)cc1c4c23 [Ellagic acid, reference compound]
- IC50 [2, 5]: 2.5 ± 0.1 µM
- IC50 [2, 6]: 1.8 ± 0.1 µM
- α-Glucosidase inhibitory activity (in words) (α-glucosidase [3]): little effect
- IC50 (α-glucosidase [3]): > 100 µM
- Crosslink-Cleaving Activities Relative Ratio [4]: 11.4 ± 0.1

Compound: O=C(OC[C@H]1O[C@@H](OC(=O)c2cc(O)c(O)c(O)c2)[C@H](OC(=O)c2cc(O)c(O)c(O)c2)[C@@H](O)[C@@H]1OC(=O)c1cc(O)c(O)c(O)c1)c1cc(O)c(O)c(O)c1 [Compound 6, 1,2,4,6-tetra-O-galloyl-β-D-glucose]
- IC50 [2, 5]: 0.3 µM
- IC50 [2, 6]: 0.3 µM
- IC50 (α-glucosidase [3]): > 100 µM
- Crosslink-Cleaving Activities Relative Ratio [4]: 159.6 ± 12.7

Compound: O=C(OC[C@H]1O[C@@H](OC(=O)c2cc(O)c(O)c(O)c2)[C@H](OC(=O)c2cc(O)c(O)c(O)c2)[C@@H](OC(=O)c2cc(O)c(O)c(O)c2)[C@@H]1OC(=O)c1cc(O)c(O)c(O)c1)c1cc(O)c(O)c(O)c1 [1,2,3,4,6-Penta-O-galloyl-β-D-glucose, reference compound]
- IC50 [2, 5]: 0.2 µM
- IC50 [2, 6]: 0.2 µM
- IC50 (α-glucosidase [3]): 59 ± 0.4 µM
- Crosslink-Cleaving Activities Relative Ratio [4]: 97.9 ± 2.1

Compound: COc1cc(C2Oc3c(OC)cc(CCCO)cc3C2COC2OC(CO)C(O)C(O)C2O)ccc1O [Compound 10, (7′S,8′R)-dihydrodehydrodiconiferyl alcohol-9′-O-β-D-glucoside]
- IC50 [2, 5]: > 1000 µM
- IC50 [2, 6]: > 500 µM
- α-Glucosidase inhibitory activity (in words) (α-glucosidase [3]): no inhibitory activity
- IC50 (α-glucosidase [3]): > 100 µM
- Crosslink-Cleaving Activities Relative Ratio [4]: 16.7 ± 1.4

Compound: O=C(OC[C@H]1O[C@@H](OC(=O)c2cc(O)c(O)c(O)c2)[C@H](OC(=O)c2cc(O)c(O)c(O)c2)[C@@H](O)[C@@H]1O)c1cc(O)c(O)c(O)c1 [Compound 3, 1,2,6-tri-O-galloyl-β-D-glucose]
- IC50 (α-glucosidase [1]): > 100 µM
- IC50 [2, 5]: 0.4 µM
- IC50 [2, 6]: 0.3 µM
- Crosslink-Cleaving Activities Relative Ratio [4]: 146.6 ± 12.6

Compound: N=C(N)NN [Aminoguanidine, aminoguanidine hydrochloride, reference compound]
- IC50 [2, 5]: 801 ± 17.7 µM
- IC50 [2, 6]: 259 ± 6.8 µM

Compound: O=C(O[C@@H]1O[C@@H]2COC(=O)c3cc(Oc4c(C(=O)O[C@@H]5O[C@@H]6COC(=O)c7cc(O)c(O)c(O)c7-c7c(cc(O)c(O)c7O)C(=O)O[C@H]6[C@H](OC(=O)c6cc(O)c(O)c(O)c6)[C@H]5OC(=O)c5cc(O)c(O)c(O)c5)cc(O)c(O)c4O)c(O)c(O)c3-c3c(cc(O)c(O)c3O)C(=O)O[C@H]2[C@H](OC(=O)c2cc(O)c(O)c(O)c2)[C@H]1OC(=O)c1cc(O)c(O)c(O)c1)c1cc(O)c(O)c(O)c1 [rugosin D, reference compound]
- Inhibitory activity on α-glucosidase (in words) (α-glucosidase [1]): comparable to that of acarbose

Compound: O=C(O[C@@H]1O[C@H](CO)[C@@H](O)[C@H](OC(=O)c2cc(O)c(O)c(O)c2)[C@H]1OC(=O)c1cc(O)c(O)c(O)c1)c1cc(O)c(O)c(O)c1 [Compound 2, 1,2,3-tri-O-galloyl-β-D-glucose]
- IC50 (α-glucosidase [1]): > 100 µM
- IC50 [2, 5]: 0.4 µM
- IC50 [2, 6]: 0.4 µM
- Crosslink-Cleaving Activities Relative Ratio [4]: 190.5 ± 2.5

Compound: O=C(OC1O[C@@H]2COC(=O)c3cc(O)c(O)c(O)c3-c3c(cc(O)c(O)c3O)C(=O)O[C@H]2[C@H](OC(=O)c2cc(O)c(O)c(O)c2)[C@H]1OC(=O)c1cc(O)c(O)c(O)c1)c1cc(O)c(O)c(O)c1 (stereo partly shown) [Compound 7, tellimagrandin II]
- IC50 (α-glucosidase [1]): > 100 µM
- IC50 [2, 5]: 0.3 µM
- IC50 [2, 6]: 0.2 µM
- Crosslink-Cleaving Activities Relative Ratio [4]: 230.8 ± 12.2

Compound: O=C(O[C@@H]1O[C@@H]2COC(=O)c3cc(Oc4c(C(=O)O[C@H]5C(O)O[C@@H]6COC(=O)c7cc(O)c(O)c(O)c7-c7c(cc(O)c(O)c7O)C(=O)O[C@H]6[C@@H]5OC(=O)c5cc(O)c(O)c(O)c5)cc(O)c(O)c4O)c(O)c(O)c3-c3c(cc(O)c(O)c3O)C(=O)O[C@H]2[C@H](OC(=O)c2cc(O)c(O)c(O)c2)[C@H]1OC(=O)c1cc(O)c(O)c(O)c1)c1cc(O)c(O)c(O)c1 (stereo partly shown) [Compound 9, camptothin B]
- IC50 [2, 5]: 0.2 µM
- IC50 [2, 6]: 0.1 µM
- IC50 (α-glucosidase [3]): > 100 µM
- Crosslink-Cleaving Activities Relative Ratio [4]: 180.6 ± 4.2

Compound: COc1cc([C@H]2Oc3c(OC)cc(CCCO)cc3[C@@H]2CO)ccc1O [Compound 13]
- IC50 [2, 5]: > 1000 µM
- IC50 [2, 6]: > 500 µM
- α-Glucosidase inhibitory activity (in words) (α-glucosidase [3]): no inhibitory activity
- IC50 (α-glucosidase [3]): > 100 µM
- Crosslink-Cleaving Activities Relative Ratio [4]: 17.2 ± 1.1

Compound: O=C(O[C@@H]1O[C@@H]2COC(=O)c3cc(Oc4ccc(O)c(O)c4O)c(O)c(O)c3-c3c(cc(O)c(O)c3O)C(=O)O[C@H]2[C@H](OC(=O)c2cc(O)c(O)c(O)c2)[C@H]1OC(=O)c1cc(O)c(O)c(O)c1)c1cc(O)c(O)c(O)c1 [Compound 8, decarboxylated rugosin A]
- IC50 [2, 5]: 0.3 µM
- IC50 [2, 6]: 0.3 µM
- IC50 (α-glucosidase [3]): 20.7 ± 0.1 µM
- Crosslink-Cleaving Activities Relative Ratio [4]: 233.0 ± 5.8

Compound: O=C(OC[C@H]1O[C@@H](O)[C@H](OC(=O)c2cc(O)c(O)c(O)c2)[C@@H](OC(=O)c2cc(O)c(O)c(O)c2)[C@@H]1O)c1cc(O)c(O)c(O)c1 [Compound 4, 2,3,6-tri-O-galloyl-β-D-glucose]
- IC50 [2, 5]: 1 µM
- IC50 [2, 6]: 0.3 µM

Compound: O=C(O)c1cc(O)c(O)c(O)c1 [Gallic acid]
- IC50 (α-glucosidase [1]): > 100 µM
- IC50 [2, 5]: 27 ± 2.6 µM
- IC50 [2, 6]: 14.7 ± 2 µM
- α-Glucosidase inhibitory activity (in words) (α-glucosidase [3]): little effect
- AGE cross-link cleaving activity (in words) [4]: remarkable activities
- Crosslink-Cleaving Activities Relative Ratio [4]: 720.1 ± 54.1

Compound: O=C(C[n+]1ccsc1)c1ccccc1.[Br-] [N-Phenacylthiazolium bromide (PTB), N-phenacylthiazolium bromide, reference compound]
- Crosslink-Cleaving Activities Relative Ratio [4]: 100

Compound: O=C(OC[C@H]1O[C@@H](OC(=O)c2cc(O)c(O)c(O)c2)[C@H](OC(=O)c2cc(O)c(O)c(O)c2)[C@@H](OC(=O)c2cc(O)c(O)c(O)c2)[C@@H]1O)c1cc(O)c(O)c(O)c1 [Compound 5, 1,2,3,6-tetra-O-galloyl-β-D-glucose]
- IC50 (α-glucosidase [1]): > 100 µM
- IC50 [2, 5]: 0.3 µM
- IC50 [2, 6]: 0.3 µM
- Crosslink-Cleaving Activities Relative Ratio [4]: 209.0 ± 33.7

Compound: O=c1oc2c(Oc3ccc(O)c(O)c3O)c(O)cc3c(=O)oc4c(O)c(O)cc1c4c23 [Compound 11, rubuphenol]
- IC50 [2, 5]: 4.7 ± 0.3 µM
- IC50 [2, 6]: 2.4 µM
- α-Glucosidase inhibitory activity (in words) (α-glucosidase [3]): no inhibitory activity
- IC50 (α-glucosidase [3]): > 100 µM
- AGE cross-link cleaving activity (in words) [4]: remarkable activities
- Crosslink-Cleaving Activities Relative Ratio [4]: 514.8 ± 11.2

Compound: O=c1oc2c(O)c(Oc3ccc(O)c(O)c3O)cc3c(=O)oc4c(O)c(O)cc1c4c23 [Compound 12, eschweilenol A]
- IC50 [2, 5]: 2.9 ± 0.1 µM
- IC50 [2, 6]: 2.4 µM
- α-Glucosidase inhibitory activity (in words) (α-glucosidase [3]): no inhibitory activity
- IC50 (α-glucosidase [3]): > 100 µM
- AGE cross-link cleaving activity (in words) [4]: remarkable activities
- Crosslink-Cleaving Activities Relative Ratio [4]: 484.5 ± 12.5

Compound: O=C(OC[C@H]1O[C@@H](O)[C@H](OC(=O)c2cc(O)c(O)c(O)c2)[C@@H](O)[C@@H]1O)c1cc(O)c(O)c(O)c1 [Compound 1, 2,6-di-O-galloyl-β-D-glucose]
- IC50 [2, 5]: 3.3 µM
- IC50 [2, 6]: 1.5 ± 0.1 µM
- Crosslink-Cleaving Activities Relative Ratio [4]: 77.4 ± 4.0

Reference: paper PMC8510478, “Characterization and Identification of Bioactive Polyphenols in the Trapa bispinosa Roxb. Pericarp Extract” (Molecules, 2021)
